In patent publication US9745319B2, “Irreversible covalent inhibitors of the GTPase K-Ras G12C” (Araxes Pharma LLC, priority 2013, dated 2017) one finds Binding % data, which are given here for 32 molecules.

This test deals with T1, KRAS G12C 1-169, his-tagged protein, GDP-loaded (Homo sapiens, UniProt P01116, G12C).
T1 construct: KRAS G12C 1-169, his-tagged protein, GDP-loaded was diluted to 2 μm in buffer
Kind of test: Biochemical assay: covalent binding to KRAS G12C analyzed by mass spectrometry. The conditions noted are these: protein diluted to 2 μm, room temperature for 24 hrs, method lists 100, 30 and 10 μM final compound concentration, not stated which applies. The procedure: Test compounds were prepared as 10 mM stock solutions in DMSO (Fisher cat# BP-231-100). KRAS G12C 1-169, his-tagged protein, GDP-loaded was diluted to 2 μm in buffer (20 mM Hepes, 150 mM NaCl, 1 mM MgCl2). Compounds were tested for activity as follows:
Compounds were diluted to 50× final test concentration in DMSO in 96-well storage plates. Compound stock solutions were vortexed before use and observed carefully for any sign of precipitation. Dilutions were as follow: • For 100 μM final compound concentration, compounds were diluted to 5000 μM (5 μl 10 mM compound stock +5 μl DMSO and mixed well by pipetting. • For 30 μM final compound concentration, compounds were diluted to 1500 μM (3 μl 10 mM compound stock +17 μl DMSO) and mixed well by pipetting. • For 10 μM final compound concentration, compounds were diluted to 500 μM (2 μl 10 mM compound stock +38 μl DMSO) and mixed well by pipetting. 49 μl of the stock protein solution was added to each well of a 96-well PCR plate (Fisher cat#1423027). 1 μl of the diluted 50× compounds were added to appropriate wells in the PCR plate using 12-channel pipettor. Reactions were mixed carefully and thoroughly by pipetting up/down with a 200 μl multi-channel pipettor. The plate was sealed well with aluminum plate seal, and stored in drawer at room temperature for 24 hrs. 5 μl of 2% formic acid (Fisher cat# A117) in DI H2O was then added to each well followed by mixing with a pipette. The plate was then resealed with aluminum seal and stored on dry ice until analyzed as described below.
The above described assays were analyzed by mass spectrometry according to the following procedure:
The MS instrument is set to positive polarity, 2 GHz resolution, and low mass (1700) mode and allowed to equilibrate for 30 minutes. The instrument is then calibrated, switched to acquisition mode and the appropriate method loaded.
After another 30 minute equilibration time, a blank batch (i.e., buffer) is run to ensure equipment is operating properly. The samples are thawed at 37° C. for 10 minutes, briefly centrifuged, and transfer to the bench top. Wells A1 and H12 are spiked with 1 uL 500 uM internal standard peptide, and the plates centrifuged at 2000×g for 5 minutes. The method is then run and masses of each individual well recorded.
The masses (for which integration data is desired) for each well are pasted into the platemap and exported from the analysis. Masses for the internal standards are exported as well. The data at 50 ppm is extracted for the +19 charge state, and identity of well A1 is assigned using the internal standard spike and integrated. Peak data is exported as a TOF list and the above steps are repeated individually, for the +20, 21, 22, 23, 24, and 25 charge states.

As to `C=Cc1ccccc1S(=O)(=O)NCCOc1cccc2ccccc12` [II-12], the Binding % entry is reported as “+++ (+++ indicates binding activity from greater than 10% to 15%)”.
With `C=Cc1ccc(S(=O)(=O)NCCNc2ccc3ccccc3c2)cc1` [II-5] the entry was “++ (++ indicates binding activity from greater than 5% to 10%)”.
With `C=Cc1cccc(S(=O)(=O)NC[C@H]2C[C@@H]3O[C@H](COCc4ccccc4)[C@@H](OCc4ccccc4)[C@@H]3O2)c1` [Compound I-11] the entry was “++ (++ indicates binding activity from greater than 5% to 10%)”; with `C=Cc1ccc(S(=O)(=O)NC[C@H]2C[C@@H]3O[C@H](COCc4ccccc4)[C@@H](OCc4ccccc4)[C@@H]3O2)cc1` [Compound I-10], “++++ (++++ indicates binding activity from greater than 15%)”.
For `C=CC(=O)NC[C@@H]1C[C@@H]2O[C@H](COCc3ccccc3)[C@@H](OCc3ccccc3)[C@@H]2O1` [Compound I-4], the Binding % entry is reported as “+ (+ indicates binding activity from 0.5% to 5%)”.
With `C=Cc1ccccc1S(=O)(=O)NC[C@H]1C[C@@H]2O[C@H](CO)[C@@H](OCc3ccccc3)[C@@H]2O1` [Compound I-18] the entry was “+++ (+++ indicates binding activity from greater than 10% to 15%)”; with `C=Cc1ccccc1S(=O)(=O)NCCNc1cccc2ccccc12` [II-11], “++++ (++++ indicates binding activity from greater than 15%)”; with `C=Cc1cccc(S(=O)(=O)NC[C@@H]2C[C@@H]3O[C@H](COCc4ccccc4)[C@@H](OCc4ccccc4)[C@@H]3O2)c1` [Compound I-13], “++++ (++++ indicates binding activity from greater than 15%)”.
The value for `C=CS(=O)(=O)NCCNc1cccc2ccccc12` [II-3] was “+++ (+++ indicates binding activity from greater than 10% to 15%)”.
Regarding `C=Cc1cccc(S(=O)(=O)NCCOc2cccc3ccccc23)c1` [II-7], the Binding % result is given as “++ (++ indicates binding activity from greater than 5% to 10%)”.
With `C=CS(=O)(=O)NC[C@H]1C[C@@H]2O[C@H](COCc3ccccc3)[C@@H](OCc3ccccc3)[C@@H]2O1` [Compound I-6] the entry was “+++ (+++ indicates binding activity from greater than 10% to 15%)”; with `C=Cc1ccc(S(=O)(=O)NC[C@@H]2C[C@@H]3O[C@H](COCc4ccccc4)[C@@H](OCc4ccccc4)[C@@H]3O2)cc1` [Compound I-14], “+++ (+++ indicates binding activity from greater than 10% to 15%)”; with `C=Cc1ccccc1S(=O)(=O)NCCOc1ccc2ccccc2c1` [II-9], “++ (++ indicates binding activity from greater than 5% to 10%)”.
With `C=CS(=O)(=O)NCCOc1cccc2ccccc12` [II-2] the entry was “+++ (+++ indicates binding activity from greater than 10% to 15%)”.
The value for `C=Cc1cccc(S(=O)(=O)NCCOc2ccc3ccccc3c2)c1` [II-8] was “+++ (+++ indicates binding activity from greater than 10% to 15%)”.
Consider `C=Cc1ccccc1S(=O)(=O)NC[C@@H]1C[C@@H]2O[C@H](COCc3ccccc3)[C@@H](OCc3ccccc3)[C@@H]2O1` [Compound I-15], for which the Binding % entry is “+++ (+++ indicates binding activity from greater than 10% to 15%)”.
For the molecule `C=CS(=O)(=O)NC[C@@H]1C[C@@H]2O[C@H](COCc3ccccc3)[C@@H](OCc3ccccc3)[C@@H]2O1` [Compound I-5], the Binding % result was “+++ (+++ indicates binding activity from greater than 10% to 15%)”.
With `C=CS(=O)(=O)NCCNc1ccc2ccccc2c1` [II-4] the entry was “++ (++ indicates binding activity from greater than 5% to 10%)”; with `C=Cc1ccc(S(=O)(=O)NC[C@H]2C[C@@H]3O[C@H](CO)[C@@H](OCc4ccccc4)[C@@H]3O2)cc1` [Compound I-19], “++ (++ indicates binding activity from greater than 5% to 10%)”.
Take `C=CS(=O)(=O)NCCOc1ccc2ccccc2c1` [II-1]: the Binding % result is “+++ (+++ indicates binding activity from greater than 10% to 15%)”.
With `C=Cc1ccccc1S(=O)(=O)NC[C@H]1C[C@@H]2O[C@H](COCc3ccccc3)[C@@H](OCc3ccccc3)[C@@H]2O1` [Compound I-12], the Binding % result was “+++ (+++ indicates binding activity from greater than 10% to 15%)”.
With `C=Cc1cccc(S(=O)(=O)NC[C@@H]2C[C@@H]3O[C@H](CO)[C@@H](OCc4ccccc4)[C@@H]3O2)c1` [Compound I-20], the Binding % result is “+++ (+++ indicates binding activity from greater than 10% to 15%)”.
With `C=CC(=O)NC[C@H]1C[C@@H]2O[C@H](COCc3ccccc3)[C@@H](OCc3ccccc3)[C@@H]2O1` [Compound I-3] the entry was “+ (+ indicates binding activity from 0.5% to 5%)”; with `C=Cc1ccc(S(=O)(=O)NC[C@H]2C[C@@H]3O[C@H](CO)[C@@H](OCc4ccccc4)[C@@H]3O2)cc1` [Compound I-9], “+++ (+++ indicates binding activity from greater than 10% to 15%)”.
The value for `C=Cc1cccc(S(=O)(=O)NC[C@H]2C[C@@H]3O[C@H](CO)[C@@H](OCc4ccccc4)[C@@H]3O2)c1` [Compound I-16] was “++ (++ indicates binding activity from greater than 5% to 10%)”.
For the molecule `C=Cc1ccc(S(=O)(=O)NCCNc2cccc3ccccc23)cc1` [II-10], the Binding % result was “+++ (+++ indicates binding activity from greater than 10% to 15%)”.
With `C=Cc1ccccc1S(=O)(=O)NC[C@@H]1C[C@@H]2O[C@H](CO)[C@@H](OCc3ccccc3)[C@@H]2O1` [Compound I-17] the entry was “++++ (++++ indicates binding activity from greater than 15%)”.
The value for `C=CC(=O)NC[C@@H]1C[C@@H]2O[C@H](CO)[C@@H](OCc3ccccc3)[C@@H]2O1` [Compound I-2] was “+ (+ indicates binding activity from 0.5% to 5%)”; that for `C=CC(=O)NCC1C[C@@H]2O[C@H](CO)[C@@H](OCc3ccccc3)[C@@H]2O1` (some centres unmarked) [Compound I-1] was “+ (+ indicates binding activity from 0.5% to 5%)”.
With `C=CS(=O)(=O)NC[C@H]1C[C@@H]2O[C@H](CO)[C@@H](OCc3ccccc3)[C@@H]2O1` [Compound I-7] the entry was “++ (++ indicates binding activity from greater than 5% to 10%)”; with `C=Cc1ccc(S(=O)(=O)NCCOc2ccc3ccccc3c2)cc1` [II-6], “+++ (+++ indicates binding activity from greater than 10% to 15%)”.
Regarding `C=Cc1ccccc1S(=O)(=O)NCCNc1ccc2ccccc2c1` [II-13], the Binding % result is given as “+++ (+++ indicates binding activity from greater than 10% to 15%)”.
